We go through 31 compounds from ChEMBL document CHEMBL3351747, “Structure-based design of β1i or β5i specific inhibitors of human immunoproteasomes” (J Med Chem, 2014).

Experiment [1] relates to Raji. In words: Ratio of IC50 for 20s proteasome subunit beta-1c to IC50 for proteasome subunit beta-1i in human Raji cells. It counts as cell-based.
In experiment [2] the target is T1, Proteasome subunit beta type-10 (Homo sapiens, UniProt P40306).
T1 sequence (P40306 whole entry): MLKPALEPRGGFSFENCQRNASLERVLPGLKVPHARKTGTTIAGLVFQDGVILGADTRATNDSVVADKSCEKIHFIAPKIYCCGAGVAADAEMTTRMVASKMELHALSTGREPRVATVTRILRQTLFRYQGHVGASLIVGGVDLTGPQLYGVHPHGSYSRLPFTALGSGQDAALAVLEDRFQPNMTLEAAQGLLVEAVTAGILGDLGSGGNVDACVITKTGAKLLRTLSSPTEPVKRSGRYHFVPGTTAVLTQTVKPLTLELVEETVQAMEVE
Kind of experiment: Inhibition of proteasome subunit beta-2i in human Raji cells using BODIPY- epoxomicin by fluorescent densitometry. The format is cell-based.

Experiment [3] in a line: Inhibition of 20s proteasome subunit beta-1c in human Raji cells using BODIPY- epoxomicin by fluorescent densitometry. The format is cell-based.
Experiment [4] has as its target T2, Proteasome subunit beta type-9 (Homo sapiens, UniProt P28065).
T2 sequence (P28065 whole entry): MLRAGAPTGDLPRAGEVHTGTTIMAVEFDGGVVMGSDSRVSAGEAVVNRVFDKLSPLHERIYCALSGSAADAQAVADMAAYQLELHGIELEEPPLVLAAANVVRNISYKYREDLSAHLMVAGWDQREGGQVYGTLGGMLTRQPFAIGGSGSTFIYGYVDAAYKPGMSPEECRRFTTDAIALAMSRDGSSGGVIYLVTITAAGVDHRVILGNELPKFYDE
Kind of experiment: Inhibition of proteasome subunit beta-1i in human Raji cells using BODIPY- epoxomicin by fluorescent densitometry. The format is cell-based.

The target of experiment [5] is T3, Proteasome subunit beta type-8 (Homo sapiens, UniProt P28062).
T3 sequence (P28062 whole entry): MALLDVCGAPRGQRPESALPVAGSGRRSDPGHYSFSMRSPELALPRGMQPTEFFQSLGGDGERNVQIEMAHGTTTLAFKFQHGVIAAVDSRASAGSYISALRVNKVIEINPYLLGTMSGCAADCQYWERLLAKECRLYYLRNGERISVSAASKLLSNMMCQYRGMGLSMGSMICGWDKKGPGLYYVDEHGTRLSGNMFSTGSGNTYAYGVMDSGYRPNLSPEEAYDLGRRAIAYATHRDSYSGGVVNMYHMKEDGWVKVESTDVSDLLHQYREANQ
In words: Inhibition of proteasome subunit beta-5i in human Raji cells using BODIPY-NC005 by fluorescent densitometry. It counts as cell-based.

A short description of experiment [6]: Inhibition of 20s proteasome subunit beta-5c in human Raji cells using BODIPY-NC005 by fluorescent densitometry. It counts as cell-based.
For experiment [7], the target named is T2, Proteasome subunit beta type-9. In words: Inhibition of proteasome subunit beta-1i in human RPMI8226 cells using BODIPY-NC001 by fluorescent densitometry. The format is cell-based, RPMI-8226.
The target of experiment [8] is T3, Proteasome subunit beta type-8. Kind of experiment: Inhibition of proteasome subunit beta-5i in human RPMI8226 cells using BODIPY-NC005 by fluorescent densitometry. It counts as cell-based, RPMI-8226.
Experiment [9] is described as follows: Inhibition of 20s proteasome subunit beta-2c in human Raji cells using BODIPY- epoxomicin by fluorescent densitometry. The format is cell-based.
Experiment [10] is described as follows: Inhibition of 20s proteasome subunit beta-2c in human RPMI8226 cells using BODIPY-epoxomicin by fluorescent densitometry. The format is cell-based. Particulars: rpmi-8226.
A short description of experiment [11]: Inhibition of 20s proteasome subunit beta-1c in human RPMI8226 cells using BODIPY-NC001 by fluorescent densitometry. Particulars: rpmi-8226. It counts as cell-based.
A short description of experiment [12]: Inhibition of 20s proteasome subunit beta-5c in human RPMI8226 cells using BODIPY-NC005 by fluorescent densitometry. The format is cell-based. Particulars: rpmi-8226.

Some results are limits rather than exact numbers.

A word on the IC50: it is the concentration that inhibits the measured activity by half. A higher IC50 goes with lower potency. Consider `CCCC[C@H](NC(=O)[C@@H]1CC(F)(F)CN1C(=O)[C@H](C)NC(=O)CN=[N+]=[N-])C(=O)N[C@@H](Cc1ccccc1)C(=O)[C@@]1(C)CO1`, for which the Ratio IC50 in [1] is 114. Moreover, the IC50 in experiment [2] is above 100000 nM; in experiment [3], 4800 nM; in experiment [4], 42 nM.
With `COc1ccc(C[C@H](NC(=O)[C@@H](C)NC(=O)C2=C(C)c3ccccc3C2)C(=O)N[C@@H](Cc2ccccc2)C(=O)[C@@]2(C)CO2)cc1`, the IC50 in experiment [5] was 3 nM; in [6] it was 157 nM.
Turning to `COc1ccc(C[C@H](NC(=O)[C@H](C)NC(=O)CN2CCOCC2)C(=O)N[C@H](/C=C/S(C)(=O)=O)CC2CCCCC2)cc1`, the 50% inhibitory concentration (IC50) in experiment [5] is 5700 nM; in [6], above 100000 nM.
Regarding `CCCC[C@H](NC(=O)[C@@H]1CCCN1C(=O)[C@H](C)NC(=O)CN=[N+]=[N-])C(=O)N[C@@H](Cc1ccccc1)C(=O)[C@@]1(C)CO1`, the Ratio IC50 in [1] turned out to be 9. In addition, the IC50 in experiment [2] is above 100000 nM; in experiment [3], 580 nM; in [4] it was 66 nM.
For the compound `COc1ccc(C[C@H](NC(=O)[C@H](C)NC(=O)CN2CCOCC2)C(=O)N[C@@H](CC2CCCCC2)C(=O)[C@@]2(C)CO2)cc1`, the half-maximal inhibitory concentration (IC50) in experiment [5] stood at 6.6 nM; in [7] it was 370 nM; in experiment [8] it was 44 nM; in experiment [4] it was 300 nM.
As to `COc1ccc(C[C@H](NC(=O)[C@@H](C)NC(=O)CN2CCOCC2)C(=O)N[C@@H](Cc2ccc(-c3ccccc3)cc2)C(=O)[C@@]2(C)CO2)cc1`, the figures for the half-inhibitory concentration (IC50) in experiment [5] and in experiment [6] were 1.2 nM and 9.9 nM, respectively.
As to `COc1ccc(C[C@H](NC(=O)[C@H](C)NC(=O)C2=C(C)c3ccccc3C2)C(=O)N[C@@H](CC2CCCCC2)C(=O)[C@@]2(C)CO2)cc1`, the IC50 in experiment [5] was determined as 3 nM; in [6], 14.5 nM.
`CCCCCCC(=O)N[C@@H](C)C(=O)N[C@@H](CC(C)C)C(=O)[C@@]1(CO[Si](C)(C)C(C)(C)C)CO1`: the Ratio IC50 in experiment [1] was found to be 144. The values for the IC50 in experiment [2], in [3] and in experiment [4] were 25000 nM, 15000 nM and 104 nM, respectively.
For the compound `CCCC[C@H](NC(=O)[C@@H]1CSCN1C(=O)[C@H](C)NC(=O)CN=[N+]=[N-])C(=O)N[C@@H](CC(C)C)C(=O)[C@@]1(C)CO1`, the Ratio IC50 in [1] came out at 6.5. Also, the IC50 in [3] came out at 240 nM; in experiment [4], 68 nM.
As to `CC1=C(C(=O)N[C@H](C)C(=O)N[C@@H](Cc2c[nH]c3ccccc23)C(=O)N[C@H](/C=C/S(C)(=O)=O)CC2CCCCC2)Cc2ccccc21`, the concentration for half-maximal inhibition (IC50) in experiment [5] is 632 nM; in experiment [6], 62000 nM.
The corresponding values for `COc1ccc(C[C@H](NC(=O)[C@H](C)NC(=O)CN2CCOCC2)C(=O)N[C@@H](Cc2ccc3ccccc3c2)C(=O)[C@@]2(C)CO2)cc1` are 3.1 nM and 97 nM.
For `COc1ccc(C[C@H](NC(=O)[C@@H](C)NC(=O)C2=C(C)c3ccccc3C2)C(=O)N[C@@H](Cc2ccc(-c3ccccc3)cc2)C(=O)[C@@]2(C)CO2)cc1` the same measures were 3.3 nM and 43 nM.
Regarding `COc1ccc(C[C@H](NC(=O)[C@H](C)NC(=O)C2=C(C)c3ccccc3C2)C(=O)N[C@@H](Cc2ccc(-c3ccccc3)cc2)C(=O)[C@@]2(C)CO2)cc1`, the values for the concentration for half-maximal inhibition (IC50) in [5] and in experiment [6] were 1.4 nM and 12.6 nM, respectively.
Take `CCCC[C@H](NC(=O)[C@@H]1CC(F)(F)CN1C(=O)[C@H](C)NC(=O)CN=[N+]=[N-])C(=O)N[C@@H](CC(C)C)C(=O)[C@@]1(C)CO1`: the Ratio IC50 in experiment [1] was 10.5. Further, the half-inhibitory concentration (IC50) in experiment [3] stood at 360 nM; in [4] it was 34 nM.
Turning to `COc1ccc(C[C@H](NC(=O)[C@H](C)NC(=O)CN2CCOCC2)C(=O)N[C@H](/C=C/S(C)(=O)=O)Cc2ccccc2)cc1`, the values for the IC50 in experiment [5] and in experiment [6] were 392 nM and 14000 nM, respectively.
In the case of `CCCC[C@H](NC(=O)[C@@H]1C[C@@H](O)CN1C(=O)[C@H](C)NC(=O)CN=[N+]=[N-])C(=O)N[C@@H](CC(C)C)C(=O)[C@@]1(C)CO1`, in experiment [1], the Ratio IC50 was determined as 5. The concentration for half-maximal inhibition (IC50) is 860 nM in experiment [3] and 170 nM in experiment [4].
For `CCCC[C@H](NC(=O)[C@@H]1C[C@@H](F)CN1C(=O)[C@H](C)NC(=O)CN=[N+]=[N-])C(=O)N[C@@H](CC(C)C)C(=O)[C@@]1(C)CO1` the same measures were 3, 66 nM and 22 nM.
As for `CC1=C(C(=O)N[C@H](C)C(=O)N[C@@H](Cc2c[nH]c3ccccc23)C(=O)N[C@@H](Cc2ccc(-c3ccccc3)cc2)C(=O)[C@@]2(C)CO2)Cc2ccccc21`, the 50% inhibitory concentration (IC50) came to 5 nM in experiment [5] and 79 nM in experiment [6].
As to `COc1ccc(C[C@H](NC(=O)[C@H](C)NC(=O)CN2CCOCC2)C(=O)N[C@@H](CC23CC4CC(CC(C4)C2)C3)C(=O)[C@@]2(C)CO2)cc1`, the concentration for half-maximal inhibition (IC50) in experiment [5] and in experiment [6] was above 50000 nM in each case.
Regarding `CCCC[C@H](NC(=O)[C@@H]1CCCCN1C(=O)[C@H](C)NC(=O)CN=[N+]=[N-])C(=O)N[C@@H](CC(C)C)C(=O)[C@@]1(C)CO1`, the Ratio IC50 in [1] came out at 3.7. Moreover, the figures for the IC50 in [3] and in experiment [4] were 250 nM and 67 nM, respectively.
For `COc1ccc(C[C@H](NC(=O)[C@H](C)NC(=O)CN2CCOCC2)C(=O)N[C@@H](Cc2cccc3ccccc23)C(=O)[C@@]2(C)CO2)cc1`, the 50% inhibitory concentration (IC50) in [5] was determined as 244 nM; in [6], 1800 nM.
Turning to `COc1ccc(C[C@H](NC(=O)[C@@H](C)NC(=O)CN2CCOCC2)C(=O)N[C@@H](Cc2ccccc2)C(=O)[C@@]2(C)CO2)cc1`, it took 116 nM to reach half-maximal inhibition in [6] (IC50).
Consider `C[C@@H](NC(=O)CN1CCOCC1)C(=O)N[C@@H](Cc1c[nH]c2ccccc12)C(=O)N[C@@H](Cc1ccc(-c2ccccc2)cc1)C(=O)[C@@]1(C)CO1`, for which the figures for the IC50 in [5] and in [6] were 2.1 nM and 14 nM, respectively.
For `COc1ccc(C[C@H](NC(=O)[C@H](C)NC(=O)CN2CCOCC2)C(=O)N[C@@H](Cc2ccc(-c3ccccc3)cc2)C(=O)[C@@]2(C)CO2)cc1` the same measures were 2 nM and 20 nM.
`C[C@@H](NC(=O)CN1CCOCC1)C(=O)N[C@@H](Cc1c[nH]c2ccccc12)C(=O)N[C@@H](Cc1ccccc1)C(=O)[C@@]1(C)CO1`: the concentration for half-maximal inhibition (IC50) was found to be 13 nM in [5] and 104 nM in experiment [6].
For `CCCC[C@H](NC(=O)[C@@H]1CCN1C(=O)[C@H](C)NC(=O)CN=[N+]=[N-])C(=O)N[C@@H](CC(C)C)C(=O)[C@@]1(C)CO1`, the Ratio IC50 in experiment [1] came to 0.6. Moreover, the 50% inhibitory concentration (IC50) in [3] was 54 nM; in [4] it was 96 nM.
`COc1ccc(C[C@H](NC(=O)[C@H](C)NC(=O)C2=C(C)c3ccccc3C2)C(=O)N[C@@H](Cc2ccccc2)C(=O)[C@@]2(C)CO2)cc1`: the concentration for half-maximal inhibition (IC50) in experiment [5] was 5 nM; in [6], 6 nM.
Consider `COc1ccc(C[C@H](NC(=O)[C@@H](C)NC(=O)CN2CCOCC2)C(=O)N[C@@H](CC2CCCCC2)C(=O)[C@@]2(C)CO2)cc1`, for which the IC50 was 36 nM in [5], 7300 nM in [7], 100 nM in experiment [8] and above 10000 nM in experiment [4].
For the compound `CCCC[C@H](NC(=O)[C@@H]1C[C@H](F)CN1C(=O)[C@H](C)NC(=O)CN=[N+]=[N-])C(=O)N[C@@H](CC(C)C)C(=O)[C@@]1(C)CO1`, in experiment [1], the Ratio IC50 turned out to be 2.3. The figures for the IC50 in experiment [3] and in experiment [4] were 510 nM and 220 nM, respectively.
In the case of `COc1ccc(C[C@H](NC(=O)[C@H](C)NC(=O)CN2CCOCC2)C(=O)N[C@@H](Cc2ccccc2)C(=O)[C@@]2(C)CO2)cc1`, the IC50 in [9] is 1100 nM; in experiment [10], 1100 nM; in [6], 54 nM; in experiment [3], above 10000 nM; in experiment [11], above 5000 nM; in experiment [12], 180 nM.
Turning to `CCCC[C@H](NC(=O)[C@@H]1CCCN1C(=O)[C@H](C)NC(=O)CN=[N+]=[N-])C(=O)N[C@@H](CC1CCCCC1)C(=O)[C@@]1(C)CO1`, the Ratio IC50 in experiment [1] was determined as 39. Also, the IC50 in experiment [2] was above 30000 nM; in experiment [3], 3400 nM; in experiment [4], 87 nM.
